Measured values taken from ChEMBL document CHEMBL3351801, “Phragmalin-type limonoids with NF-κB inhibition from Chukrasia tabularis var. velutina” (Bioorg Med Chem Lett, 2014).

What was measured:
Assay type in all cases: cell-based
[1] = target: T1, Nuclear factor NF-kappa-B complex (Homo sapiens) (UniProt Q00653+P19838+Q04206); test: Inhibition of LPS-induced NF-kappaB (unknown origin) expressed in HEK293 cells at 100 ug/ml after 4 hrs by luciferase reporter gene assay relative to LPS-treated control
T1 sequence (P19838 whole entry, looked up): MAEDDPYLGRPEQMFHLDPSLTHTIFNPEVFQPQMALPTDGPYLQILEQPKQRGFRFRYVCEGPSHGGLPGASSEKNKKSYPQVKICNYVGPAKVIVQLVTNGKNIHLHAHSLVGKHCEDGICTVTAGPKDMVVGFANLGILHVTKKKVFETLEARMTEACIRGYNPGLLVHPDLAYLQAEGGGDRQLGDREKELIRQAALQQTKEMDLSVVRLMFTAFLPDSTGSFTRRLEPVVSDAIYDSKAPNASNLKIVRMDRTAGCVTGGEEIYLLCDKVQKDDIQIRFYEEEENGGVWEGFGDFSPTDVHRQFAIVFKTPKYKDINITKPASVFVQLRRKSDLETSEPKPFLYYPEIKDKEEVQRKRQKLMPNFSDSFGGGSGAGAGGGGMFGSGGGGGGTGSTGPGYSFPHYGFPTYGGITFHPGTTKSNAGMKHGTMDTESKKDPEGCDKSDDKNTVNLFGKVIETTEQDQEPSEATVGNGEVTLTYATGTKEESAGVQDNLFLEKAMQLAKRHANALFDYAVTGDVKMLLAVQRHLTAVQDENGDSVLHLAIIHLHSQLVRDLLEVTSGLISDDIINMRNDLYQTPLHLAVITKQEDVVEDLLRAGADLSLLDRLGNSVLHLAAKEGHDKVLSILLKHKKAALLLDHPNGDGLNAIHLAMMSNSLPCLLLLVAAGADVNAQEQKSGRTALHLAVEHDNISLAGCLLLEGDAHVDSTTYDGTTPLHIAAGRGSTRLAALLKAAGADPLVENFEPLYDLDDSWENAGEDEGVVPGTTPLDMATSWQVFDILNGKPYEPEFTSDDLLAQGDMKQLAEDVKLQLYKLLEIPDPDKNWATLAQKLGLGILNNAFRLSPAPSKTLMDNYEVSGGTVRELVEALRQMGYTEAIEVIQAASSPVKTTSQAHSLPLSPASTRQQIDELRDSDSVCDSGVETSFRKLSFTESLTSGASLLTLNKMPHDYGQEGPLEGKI
T1 sequence (Q00653 whole entry, looked up): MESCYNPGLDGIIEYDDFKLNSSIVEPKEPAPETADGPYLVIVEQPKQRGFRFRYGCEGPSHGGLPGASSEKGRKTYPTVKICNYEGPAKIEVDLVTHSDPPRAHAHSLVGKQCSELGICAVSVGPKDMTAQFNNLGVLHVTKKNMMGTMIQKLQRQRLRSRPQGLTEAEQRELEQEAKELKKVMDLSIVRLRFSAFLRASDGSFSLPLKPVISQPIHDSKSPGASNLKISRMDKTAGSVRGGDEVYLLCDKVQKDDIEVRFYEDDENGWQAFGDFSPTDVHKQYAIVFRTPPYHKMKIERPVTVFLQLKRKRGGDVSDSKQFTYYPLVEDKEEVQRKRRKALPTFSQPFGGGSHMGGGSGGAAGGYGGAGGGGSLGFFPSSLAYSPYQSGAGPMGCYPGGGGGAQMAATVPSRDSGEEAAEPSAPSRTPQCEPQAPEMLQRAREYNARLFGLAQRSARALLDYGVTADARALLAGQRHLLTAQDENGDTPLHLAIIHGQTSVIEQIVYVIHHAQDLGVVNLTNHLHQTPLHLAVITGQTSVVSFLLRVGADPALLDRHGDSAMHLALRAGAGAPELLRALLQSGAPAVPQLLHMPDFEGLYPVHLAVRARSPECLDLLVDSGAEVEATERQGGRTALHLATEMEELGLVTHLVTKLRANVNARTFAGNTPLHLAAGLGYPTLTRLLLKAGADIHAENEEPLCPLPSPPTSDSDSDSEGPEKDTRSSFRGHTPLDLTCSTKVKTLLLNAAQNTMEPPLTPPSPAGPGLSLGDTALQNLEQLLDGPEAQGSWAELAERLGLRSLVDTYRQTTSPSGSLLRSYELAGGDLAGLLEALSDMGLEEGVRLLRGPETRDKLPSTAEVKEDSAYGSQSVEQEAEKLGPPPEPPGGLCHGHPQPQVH
T1 sequence (Q04206 whole entry, looked up): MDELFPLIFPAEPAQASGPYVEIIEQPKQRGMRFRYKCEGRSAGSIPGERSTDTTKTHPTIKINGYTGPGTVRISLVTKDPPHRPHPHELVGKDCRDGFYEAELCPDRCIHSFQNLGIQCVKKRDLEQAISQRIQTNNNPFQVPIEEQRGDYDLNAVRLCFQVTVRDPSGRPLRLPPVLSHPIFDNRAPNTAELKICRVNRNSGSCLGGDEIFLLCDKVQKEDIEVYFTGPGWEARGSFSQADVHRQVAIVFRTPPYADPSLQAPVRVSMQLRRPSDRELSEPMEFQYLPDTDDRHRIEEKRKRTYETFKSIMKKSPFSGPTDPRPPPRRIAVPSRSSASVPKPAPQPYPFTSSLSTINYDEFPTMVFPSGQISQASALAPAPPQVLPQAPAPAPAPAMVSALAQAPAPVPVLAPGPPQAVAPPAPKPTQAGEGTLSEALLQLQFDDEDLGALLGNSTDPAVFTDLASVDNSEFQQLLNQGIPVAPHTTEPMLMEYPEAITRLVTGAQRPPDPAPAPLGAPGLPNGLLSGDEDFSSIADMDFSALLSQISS

[2] = target: T1, Nuclear factor NF-kappa-B complex (Homo sapiens); test: Inhibition of LPS-induced NF-kappaB (unknown origin) expressed in HEK293 cells at 10 ug/ml after 4 hrs by luciferase reporter gene assay relative to LPS-treated control
[3] = target: T1, Nuclear factor NF-kappa-B complex (Homo sapiens); test: Inhibition of LPS-induced NF-kappaB (unknown origin) expressed in HEK293 cells at 1 ug/ml after 4 hrs by luciferase reporter gene assay relative to LPS-treated control

SMILES	Ratio [1]	Ratio [2]	Ratio [3]
CCC12C[C@@H]3[C@](C)([C@@H](OC(C)=O)c4ccoc4)[C@@H](OC(C)=O)[C@@H](OC(C)=O)[C@@]4(O)[C@]3(O1)[C@H](O2)[C@@]1(OC(C)=O)[C@@H](OC(C)=O)[C@@]2(C)C[C@@]1(O)[C@@]4(COC(C)=O)[C@H]2CC(=O)OC	0.53	0.38	0.36
C[C@]12CCC(=O)C=C1CC[C@@H]1[C@@H]2[C@@H](O)C[C@@]2(C)[C@H]1CC[C@]2(O)C(=O)CO	0.6	0.37	0.29
COC(=O)C[C@H]1[C@]2(C)C[C@]3(O)[C@@](OC(C)=O)([C@H]4OC5(C)C[C@@H]6[C@](C)([C@@H](OC(C)=O)c7ccoc7)[C@@H](OC(C)=O)[C@@H](OC(C)=O)[C@@](O)([C@@]64O5)[C@]13COC(C)=O)[C@H]2OC(C)=O	0.8	0.34	0.23
CC/C(O)=C1/C(=O)O[C@@H]2[C@@]3(O)[C@@H](OC(C)=O)[C@@]4(C)C[C@]35OC3(C)O[C@]26[C@H]1[C@](C)([C@@H](OC(C)=O)c1ccoc1)[C@@H](OC(=O)C(C)C)[C@@H](OC(=O)C(C)C)[C@]6(O3)[C@@]51COC(=O)C[C@@H]41	0.29	0.18	0.11
CC(=O)O[C@@H]1[C@H](OC(C)=O)[C@@](C)([C@@H](OC(C)=O)c2ccoc2)[C@H]2CC3(C)O[C@@H]4[C@@]5(OC(C)=O)[C@@H](OC(C)=O)[C@@]6(C)C[C@@]5(O)[C@]5(COC(=O)C[C@@H]65)[C@]1(O)[C@@]24O3	0.42	0.27	0.25
CC/C(O)=C1/C(=O)O[C@@H]2[C@@]3(O)[C@@H](OC(C)=O)[C@@]4(C)C[C@]35OC3(C)O[C@]26[C@H]1[C@](C)([C@@H](OC(C)=O)c1ccoc1)[C@@H](OC(C)=O)[C@@H](O)[C@]6(O3)[C@]5(COC(C)=O)[C@H]4CC(=O)OC	0.35	0.3	0.23
CCC(=O)O[C@@H]1[C@@]2(O)[C@@H](OC(C)=O)[C@@]3(C)C[C@]24OC2(C)O[C@]15[C@@H]1CC(=O)O[C@@H](c6ccoc6)[C@]1(C)[C@@H](OC(C)=O)[C@@H](O)[C@]5(O2)[C@]4(COC(C)=O)[C@H]3CC(=O)OC	0.32	0.26	0.18
CC/C(O)=C1/C(=O)O[C@@H]2[C@@]3(O)[C@@H](OC(C)=O)[C@@]4(C)C[C@]35OC3(C)O[C@]26[C@H]1[C@](C)([C@@H](OC(C)=O)c1ccoc1)[C@@H](OC(C)=O)[C@@H](OC(C)=O)[C@]6(O3)[C@]5(COC(C)=O)[C@H]4CC(=O)OC	0.45	0.27	0.13
COC(=O)[C@H](OC(C)=O)[C@H]1[C@]2(C)C[C@]3(O)[C@@](OC(=O)C(C)C)([C@H]4OC5(C)O[C@@]6([C@H](O)[C@H](O)[C@]78C[C@]7([C@@H](OC(C)=O)C(=O)O[C@H]8c7ccoc7)[C@@]46O5)[C@]13C)[C@H]2OC(C)=O	0.44	0.32	0.09
CCC12C[C@@H]3[C@](C)([C@@H](OC(C)=O)c4ccoc4)[C@@H](OC(C)=O)[C@@H](OC(C)=O)[C@@]4(O)[C@]3(O1)[C@H](O2)[C@@]1(O)[C@@H](OC(C)=O)[C@@]2(C)C[C@@]1(O)[C@@]4(C)[C@H]2CC(=O)OC	0.17	0.08	0.12
CCC12C[C@@H]3[C@](C)([C@@H](OC(C)=O)c4ccoc4)[C@@H](OC(C)=O)[C@@H](OC(C)=O)[C@@]4(O)[C@]3(O1)[C@H](O2)[C@@]1(OC(C)=O)[C@@H](OC(C)=O)[C@@]2(C)C[C@@]1(O)[C@@]4(C)[C@H]2CC(=O)OC	0.75	0.39	0.61
CCC12C[C@@H]3[C@](C)([C@@H](OC(C)=O)c4ccoc4)[C@@H](O)[C@@H](O)[C@@]4(O)[C@]3(O1)[C@H](O2)[C@@]1(OC(C)=O)[C@@H](OC(C)=O)[C@@]2(C)C[C@@]1(O)[C@]41COC(=O)C[C@@H]21	0.59	0.48	0.33
CCC1=C[C@@H]2[C@](C)([C@@H](OC(C)=O)c3ccoc3)[C@@H](OC(C)=O)[C@@H](OC(C)=O)[C@@]34OC(=O)O[C@@]23[C@H](O1)[C@@]1(O)[C@@H](O)[C@@]2(C)C[C@@]1(O)[C@@]4(C)[C@H]2CC(=O)OC	0.26	0.14	0.16
COC(=O)[C@H](OC(C)=O)[C@H]1[C@]2(C)C[C@]3(O)[C@@](O)([C@H]4OC(=O)[C@@H]5O[C@@H](c6ccoc6)[C@@]67C[C@@]56[C@]4(O)[C@](O)([C@H](OC(=O)C(C)C)[C@@H]7OC(C)=O)[C@]13C)[C@H]2OC(C)=O	0.3	0.27	0.14
COC(=O)C[C@H]1[C@]2(C)C[C@]3(O)[C@@](OC(C)=O)([C@H]4OC5(C)C[C@@H]6[C@](C)([C@@H](OC(C)=O)c7ccoc7)[C@@H](OC(C)=O)[C@@H](OC(C)=O)[C@@](O)([C@@]64O5)[C@]13C)[C@H]2OC(C)=O	0.32	0.33	0.21
COC(=O)C[C@H]1[C@]2(C)C[C@]3(O)[C@@](O)([C@H]4OC(C)=C[C@@H]5[C@](C)([C@@H](OC(C)=O)c6ccoc6)[C@@H](OC(C)=O)[C@@H](OC(C)=O)[C@]6(OC(=O)O[C@]546)[C@]13C)[C@H]2O	0.86	0.57	0.69
COC(=O)[C@H](O)[C@H]1[C@]2(C)C[C@]3(O)[C@@](O)([C@@H](OC(=O)C(C)C)[C@]45OC6(C)O[C@H]([C@H](OC(C)=O)[C@]78C[C@@]74[C@@H](OC(C)=O)C(=O)O[C@H]8c4ccoc4)[C@]5(O6)[C@]13C)[C@H]2OC(C)=O	0.34	0.15	0.22
COC(=O)[C@H](OC(C)=O)[C@H]1[C@]2(C)C[C@]3(O)[C@@](O)([C@@H](OC(=O)C(C)C)[C@]45OC6(C)O[C@H]([C@H](OC(C)=O)[C@]78C[C@@]74[C@@H](OC(C)=O)C(=O)O[C@H]8c4ccoc4)[C@]5(O6)[C@]13C)[C@H]2OC(C)=O	0.62	0.55	0.37
CCC12C[C@@H]3[C@](C)([C@@H](OC(C)=O)c4ccoc4)[C@@H](OC(C)=O)[C@@H](OC(C)=O)[C@@]4(O)[C@]3(O1)[C@H](O2)[C@@]1(O)[C@@H](OC(C)=O)[C@@]2(C)C[C@@]1(O)[C@]41COC(=O)C[C@@H]21	0.31	0.26	0.16
COC(=O)[C@H](OC(C)=O)[C@H]1[C@]2(C)C[C@]3(O)[C@@](OC(=O)C(C)C)([C@H]4OC5(C)O[C@@]6([C@H](O)[C@H](OC(C)=O)[C@]78C[C@]7([C@@H](OC(C)=O)C(=O)O[C@H]8c7ccoc7)[C@@]46O5)[C@]13C)[C@H]2OC(C)=O	0.24	0.05	0.13
COC(=O)[C@H](O)[C@H]1[C@]2(C)C[C@]3(O)[C@@](O)([C@H]4OC5(C)C[C@@H]6[C@](C)([C@@H](OC(C)=O)c7ccoc7)[C@@H](OC(C)=O)[C@@H](OC(C)=O)[C@@](O)([C@@]64O5)[C@]13C)[C@H]2O	0.56	0.2	0.33
COC(=O)[C@H](OC(C)=O)[C@H]1[C@]2(C)C[C@]3(O)[C@@](O)([C@@H](OC(=O)C(C)C)[C@]45OC6(C)O[C@H]([C@H](O)[C@]78C[C@@]74[C@@H](OC(C)=O)C(=O)O[C@H]8c4ccoc4)[C@]5(O6)[C@]13C)[C@H]2OC(C)=O	0.1	0.1	0.05
CC/C(O)=C1/C(=O)O[C@@H]2[C@@]3(OC(C)=O)[C@@H](OC(C)=O)[C@@]4(C)C[C@]35OC3(C)O[C@]26[C@H]1[C@](C)([C@@H](OC(C)=O)c1ccoc1)[C@@H](OC(C)=O)[C@@H](O)[C@]6(O3)[C@]5(COC(C)=O)[C@H]4CC(=O)OC	0.45	0.33	0.23
CCC12C[C@@H]3[C@](C)([C@@H](OC(C)=O)c4ccoc4)[C@@H](O)[C@@H](OC(C)=O)[C@@]4(O)[C@]3(O1)[C@H](O2)[C@@]1(OC(C)=O)[C@@H](O)[C@@]2(C)C[C@@]1(O)[C@@]4(C)[C@H]2[C@@H](O)C(=O)OC	0.3	0.23	0.1
CCC12C[C@@H]3[C@](C)([C@@H](OC(C)=O)c4ccoc4)[C@@H](OC(C)=O)[C@@H](OC(C)=O)[C@@]4(O)[C@]3(O1)[C@H](O2)[C@@]1(OC(C)=O)[C@@H](OC(C)=O)[C@@]2(C)C[C@@]1(O)[C@]41COC(=O)C[C@@H]21	0.31	0.34	0.09
COC(=O)C[C@H]1[C@]2(C)C[C@@]34OC5(C)O[C@]6([C@@H]7/C(=C(\C)O)C(=O)O[C@@H](c8ccoc8)[C@]7(C)[C@@H](OC(C)=O)[C@@H](O)[C@]6(O5)[C@]13COC(C)=O)[C@H](OC(C)=O)[C@@]4(OC(C)=O)[C@H]2OC(C)=O	0.62	0.33	0.25
COC(=O)C[C@H]1[C@]2(C)C[C@]3(O)[C@@](O)([C@@H](OC(=O)C(C)C)[C@]45OC6(C)O[C@H]([C@H](OC(C)=O)[C@]78C[C@@]74[C@@H](OC(C)=O)C(=O)O[C@H]8c4ccoc4)[C@]5(O6)[C@]13C)[C@H]2OC(C)=O	0.35	0.32	0.12
COC(=O)C[C@H]1[C@]2(C)C[C@]3(O)[C@@](O)([C@@H](OC(=O)C(C)C)[C@]45OC6(C)O[C@H]([C@H](O)[C@]78C[C@@]74[C@@H](OC(C)=O)C(=O)O[C@H]8c4ccoc4)[C@]5(O6)[C@]13C)[C@H]2OC(C)=O	0.17	0.1	0.1
CC(=O)O[C@@H]1[C@H](OC(C)=O)[C@@](C)([C@@H](OC(C)=O)c2ccoc2)[C@H]2CC3(C(C)C)O[C@@H]4[C@@]5(OC(C)=O)[C@@H](OC(C)=O)[C@@]6(C)C[C@@]5(O)[C@]5(COC(=O)C[C@@H]65)[C@]1(O)[C@@]24O3	0.3	0.25	0.17
